Measurements published in patent US20110089073A1, “Methods And Compositions For Hydrophobic Modification Of Oral Cavity Surfaces” (The Procter & Gamble Company, priority 2009, published 2011).

Experiments:
[1] = Water contact angle method on treated enamel chips; design: species or system bovine
Procedure: A water contact angle method is used to determine the degree of hydrophobicity imparted by the present compositions to tooth surfaces. […] The method uses polished bovine enamel chips that are cleaned using a prophy paste followed by an acetone wipe and water rinse in a sonicator. Chips are then allowed to air dry for 60-90 minutes, and then baseline water contact angles are measured using prop Shape Analysis System DSA 10-MK2 from KRUSS. Chips with baseline water contact angle of about 48.00±5.00 are selected and randomized into groups of three per treatment. Following randomization each group of three chips are treated with a solution or dentifrice slurry (1:3 ratio) containing the test ingredient followed by a water rinse. The chips are then soaked in human saliva for an hour at 37° C. After the saliva soak, the chips are removed, rinsed with water and air dried. Contact angle reading is taken after at least 2 hours of drying. Water or regular toothpaste (without organophosphate) are used as controls. […] An increase in contact angle (post-treatment value—baseline) represents increased hydrophobic character of the surface; a decrease represents increased hydrophilic character of the surface.

[2] = In vitro erosion cycling protocol (citric acid challenge, TMR); design: species or system human; conditions: teeth treated with compositions containing the organophosphate
[3] = Dissolution of pretreated hydroxy apatite powder in acetate buffer pH 4.5
Procedure: In this protocol, HAP powder is pretreated with dentifrice slurry supernatant (20 g supernate/200 mg HAP powder) followed by three times washing with water. After the last wash, 2 ml of water is added and vortexed to form a uniform slurry. In a separate beaker, 25 ml of 0.1M acetate buffer is prepared and pH adjusted to 4.5. To this buffer solution having initial pH of 4.5, a sample of 0.5 ml of pre-treated HAP slurry is added and dissolution profile of the pretreated HAP powder is monitored via changes in pH of the acetate buffer solution. The pH change is measured and recorded using a Brinkman Titrino titrator device for 30 minutes. With HAP dissolution, pH increases and the pH change is compared to that of a plain water treated HAP as control and is used to calculate percent inhibition of HAP mineral loss.

[4] = Table 1, change from baseline after treatment, 1 h saliva soak, concentrations as in label
[5] = Table 1, vs water treated HAP, concentrations as in label
[6] = Table 3, with or without water soluble hydrophilic compound

Compound | Δ Water Contact Angle [1, 4] | Tooth mineral surface loss from acid exposure [2] | % Inhibition of HAP Surface Loss [3, 5] | other results
CCCCCCCCCCCCOS(=O)(=O)[O-].[Na+] [1% SLS, sodium lauryl sulfate, reference compound] | 0.23 |  |  | 
CCCCCCCCCCCCOP(=O)([O-])[O-].[Na+].[Na+] [Sodium dodecyl phosphate] |  | significantly less tooth mineral surface loss |  | 
Potassium Laureth Phosphate [1% Potassium Laureth Phosphate] | 45.43 |  | 89.7% | 
Potassium Laureth-3 Phosphate [1% Potassium Laureth-3 Phosphate] | 23.2 |  | 94.8% | 
Sodium Dodeceth-1 Phosphate [1% Sodium Dodeceth-1 Phosphate] | 32.13 | significantly less tooth mineral surface loss | 94.5% | Δ Water Contact Angle ([1]; Table 2, concentration 0.25%): 19.07; Δ Water Contact Angle ([1]; Table 2, concentration 0.5%): 26.57; Δ Water Contact Angle ([1]; Table 2, concentration 1.0%): 43.77; Δ Water Contact Angle ([1]; Table 2, concentration 2.0%): 61.40; Δ Water Contact Angle [1, 6]: 32.13; % Inhibition of HAP Surface Loss ([3]; Table 2, concentration 0.25%): 58.56%; % Inhibition of HAP Surface Loss ([3]; Table 2, concentration 0.5%): 75.69%; % Inhibition of HAP Surface Loss ([3]; Table 2, concentration 1.0%): 92.03%; % Inhibition of HAP Surface Loss ([3]; Table 2, concentration 2.0%): 92.83%; % Inhibition of HAP Surface Loss [3, 6]: 94.49%
Sodium Dodeceth-9 Phosphate [1% Sodium Dodeceth-9 Phosphate] | 16.43 | significantly less tooth mineral surface loss | 45.24% | 
